Experimental data reported in ChEMBL document CHEMBL3507680, “University of Dundee, Gates Library screen for HepG2 cell viability”.

test: Human HepG2 cell viability assay in 384 well format; format: toxicity, cell-based; set-up: dose 125 nL, time 70.5 hour; concentration not given beside the values; settings: HepG2 cells, read-out: Inhibition

| SMILES | cytotoxicity at 70.5 h |
| --- | --- |
| CCN(CC)S(=O)(=O)N1CCCC1CC(=O)c1cccs1 (centres undefined) | -4.6% |
| CCn1nc(C)c(NC(=O)C(C)C)c1C | -2.76% |
| CSc1ncccc1C(=O)N(C)C(C)Cc1ccccn1 (centres undefined) | -18.1% |
| CC(C)CCc1nc(CNCC2CN(C)CCO2)cs1 (centres undefined) | -1.37% |
| O=C(Cc1ccccn1)N1CC[C@]2(C[C@@H](Oc3ncccc3F)CO2)C1 | 2.46% |
| Cc1nc(CC(=O)N2CCCC[C@H](N(C)C)C2)cs1 | -7.83% |
| COCCNc1cccc(C2CCCN2)n1 (centres undefined) | -6.3% |
| COC(=O)[C@@H](NC(=O)Nc1ccc(C(C)=O)cc1)C(C)C | 13.3% |
| Cc1nc(CN2CCO[C@@H]3CN(Cc4nccs4)C[C@@H]3C2)cs1 | -1.91% |
| Cc1cccc(O[C@H]2COCCN(C3CCC3)C2)n1 | -6.06% |
| O=C(COc1cc(Cl)cc(Cl)c1)NCc1nncn1C1CC1 | -8.34% |
| CCc1nc(CC(=O)N2CCN(c3cnccn3)CC2)cs1 | -0.0277% |
| CN(C)CCOCc1nnc2n1CCN(CC1CC1)CC2 | 25.8% |
| CS(=O)(=O)NCCNC(=O)NC1(c2ccc(F)cc2)CCCC1 | -9.82% |
| CN1CCN(C(=O)c2cccc(S(=O)(=O)NCC3(C)COC3)c2)CC1 | -9.16% |
| CO[C@@H]1CCN(Cc2ccoc2)[C@@H]2CN(Cc3ccco3)C[C@@H]21 | -5.98% |
| Cc1ccc(CN2C[C@H](C(=O)N3CCCCO3)[C@@H]3CCO[C@@H]3C2)o1 | -5.78% |
| CC(C)C(Sc1cccs1)C(=O)NCc1cccnc1 (centres undefined) | -14.6% |
| Cc1nnc(C(C)Nc2ccc(OCCc3ccccc3)nc2)o1 (centres undefined) | 0.291% |
| CC(C(=O)N(Cc1ccc(C#N)cc1)CC(F)(F)F)S(C)(=O)=O (centres undefined) | -10.1% |
| CC1N(c2cnn(C)c2)C(=O)COC12CCN(CC1CC1)CC2 (centres undefined) | -3.07% |
| CCN(CC)S(=O)(=O)N1CCCC(c2ncc3c(n2)CCN(C)C3)C1 (centres undefined) | 23.8% |
| CCCNC(=O)CCC(=O)N1CCC(c2n[nH]c(C3CC3)n2)CC1 | 21.7% |

| SMILES | cytotoxicity at 70.5 h |
| --- | --- |
| COc1ccc(C)cc1CN(C)CC(N)=O | -7.37% |
| CN1CC(=O)N(c2cnn(C)c2)CC12CCN(Cc1nccn1C)C2 (centres undefined) | -4.58% |
| O=C(CCNC(=O)c1ccccc1N1CCOCC1)NC1CCCC1 | -1.96% |
| O=C(c1cc2c(s1)CCC2)N1CCN(c2cnccn2)CC1 | -14.9% |
| Cc1ncc(COc2cccc3c2NC(=O)CO3)s1 | 14.5% |
| Cc1ccc(N(Cc2ccco2)C(=O)CC2=NN(C)C(=O)C2)cc1 | -9.83% |
| Cc1nc(CN2CCCC(N(C)Cc3nnsc3Cl)C2)no1 (centres undefined) | -1.91% |
| CN(CC1CCOC1)c1ccc(Br)cn1 (centres undefined) | 29.9% |
| CCc1nccn1C1CCCN(C(=O)Cc2n[nH]c3ccccc23)C1 (centres undefined) | -1.24% |
| CC1CNC(=O)CCN1Cc1cc(O)c2cccc(F)c2n1 (centres undefined) | -6.4% |
| O=C(c1ccco1)N1CCC2(CCCN(c3ncc(F)cn3)C2)C1 (centres undefined) | 13.2% |
| COCCOc1ccc(-c2noc([C@@H]3CCCN3)n2)cn1 | -0.543% |
| CC(C)N1CCC(Nc2ccn(C)n2)C1=O (centres undefined) | -3.38% |
| COCCNC(=O)[C@H]1CN(c2ncccn2)C[C@H]2OCC[C@@H]12 | -15.6% |
| Cc1ncc(CN(C)C(=O)Nc2cccc(N3CCOC3=O)c2)s1 | 25% |
| Cc1cnn(CCNCc2csc(-c3ncccn3)n2)c1 | 18.5% |
| COCCN1CCN(c2nc(O)cc(Cc3ccccc3F)n2)CC1 | -5.81% |
| O=C(c1cn(-c2ccccc2Cl)nn1)N1CCCSCC1 | -9.29% |
| Cc1cc(C)n(CC2CCCN2CC(=O)N(C)C)n1 (centres undefined) | -11.4% |
| Cc1cc(-c2cnc(NCc3cccnc3)nc2C(C)C)on1 | -25.7% |
| O=C(NCc1nc(C2CC2)no1)N1CCOC(c2ccccc2)C1 (centres undefined) | -13.1% |
| O=C(Cc1n[nH]c(-c2cncc(Br)c2)n1)NCc1ccncc1 | -9.88% |
| O=C(c1cnc2ccccn12)N1CCCC(c2ccn[nH]2)C1 (centres undefined) | -11.2% |

| SMILES | cytotoxicity at 70.5 h |
| --- | --- |
| O=C(O)c1ccc(S(=O)(=O)Nc2cccc(CC(F)(F)F)c2)c(F)c1 | -7.64% |
| CC(C)(C)CC(=O)Nc1ccccc1SCC(N)=O | -3.84% |
| CN(Cc1ccc(C#N)cc1)Cn1nccc1-c1cccnc1 | -4% |
| Cc1ccc(-c2cc(C(=O)N(C)Cc3noc4c3CCCC4)[nH]n2)s1 | 21.6% |
| CN(C)CCOC[C@H]1CC[C@H]2[C@H](CCN2C(=O)c2ccoc2)O1 | -12.4% |
| CCc1cnc(NCC(c2ccncc2)N2CCOCC2)nc1 (centres undefined) | -6.68% |
| Cc1cc(C(=O)NC2CCCOc3cc(Cl)ccc32)n(C)n1 (centres undefined) | -5.69% |
| COc1ccc(CN(C)C2CSCCSC2)c2cccnc12 | -6.62% |
| Cc1ccc(NC(=O)CN2CCOCC2)c(F)c1 | 21.2% |
| COCCN1C[C@H]2[C@@H](C1)N(C(=O)COc1ccccc1)CC[C@H]2OC | -11.3% |
| Cc1cccc(CN2C[C@@H]3COC[C@]3(CNC(=O)C3CCC3)C2)c1 | -7.15% |
| c1cncc(-c2noc(CN3CCn4c(nnc4C4CC4)C3)n2)c1 | -1.9% |
| CCOCC1CN(Cc2ccc(OC)cc2)Cc2nn(C)cc21 (centres undefined) | 25.5% |
| O=c1oc2ccccc2n1CCCN1CCCC1c1ccc(O)cc1 (centres undefined) | -1.72% |
| Cn1cc(CN2CCCCC2c2ccc(-c3cccc(F)c3)nc2)cn1 (centres undefined) | -1.71% |
| O=C(NCc1nnc2n1CCCCC2)N1CCc2sccc2C1 | -5.42% |
| CCc1ccc(S(=O)(=O)NCCOc2ccc3nnc(C)n3n2)s1 | -11.7% |
| O=C(NCc1ccccc1CN1CCC(O)CC1)Nc1cccnc1 | -4.5% |
| COc1ccc2c(c1)C(=O)NC1(CC2)CCN(Cc2ccccn2)C1 (centres undefined) | -1% |
| Cc1cnc(N2CCC3(C2)CN(S(=O)(=O)C2CC2)C3)nc1 | -8.82% |
| CCc1nc(NC(=O)NCCc2cccc(C)n2)nn1C | -12.7% |
| Cc1nc(C(=O)N2CCC(c3nnc(Cn4ccnc4)n3C)CC2)cs1 | -8.64% |
| COc1ccc(-c2nc(CCNC(=O)NC3CCC(O)CC3)co2)cc1 (centres undefined) | 17.3% |

| SMILES | cytotoxicity at 70.5 h |
| --- | --- |
| CCC(C)NC(=O)CS(=O)(=O)Cc1cc(C)ccc1C (centres undefined) | -11.2% |
| CCc1cc(CNC(=O)N2Cc3ccccc3N(C)CC2C)on1 (centres undefined) | 3.84% |
| CC(=O)N1CCCC1c1cccc(Oc2ccccc2F)n1 (centres undefined) | -4.13% |
| Cc1cc(C)cc(C2(C(=O)NC(C)Cn3ccnc3)CC2)c1 (centres undefined) | 9.35% |
| CCN(CC)CCN1CCO[C@H]2[C@@H](OCc3ccncc3)CC[C@@H]21 | -1.93% |
| O=C1CCCC2(CCN(C(=O)c3cnccn3)CC2)N1 | -4.91% |
| CCOCC1CN(c2ccncn2)Cc2cnn(CC3CC3)c21 (centres undefined) | -7.56% |
| Cc1cc(N2CCOC(c3ccccn3)C2)nc(N)n1 (centres undefined) | -3.03% |
| C[C@H]1CN(CC2CCOCC2)C[C@@]12CCN(Cc1cccnc1)C2=O | -9.39% |
| CNC(=O)c1ccc(C2CN(C(=O)c3cnn(C)c3)CCO2)nc1 (centres undefined) | -4.81% |
| Cc1cc(CNC(=O)N2CCc3ccccc32)on1 | -1.25% |
| CSc1ccc(C(CNC(C)=O)N2CCc3sccc3C2)cc1 (centres undefined) | -12.8% |
| COc1ccc(-n2cccn2)c(CN2CCC3(CCNCC3)C2)c1 | -9.48% |
| O=C1O[C@@H]2CN(C3CCOCC3)C[C@@H]2N1CCc1cccc(Cl)c1 | -1.7% |
| Nc1nccnc1C(=O)N1CCN(CCOc2ccccc2)CC1 | 20.7% |
| CC(c1cccnc1)N(C)Cc1cc(O)c2cc(F)ccc2n1 (centres undefined) | -6.6% |
| O=C(CCCc1ccccn1)N1CCCC(n2cccn2)C1 (centres undefined) | -3.36% |
| CC(C)Cc1nc(OCC(N)=O)c(C#N)c2c1CCCC2 | -9.41% |
| Cc1cccc(CN2CCC[C@@H]3CN(C(=O)c4ccco4)C[C@@H]32)n1 | -7.63% |
| C[C@@H]1CN(C2CCOC2)C[C@]12CCN(Cc1cccnc1)C2=O (some centres undefined) | -10.6% |
| COCC(=O)N1CCC(c2n[nH]c3nccnc23)CC1 | -7.45% |
| CSCC[C@@H](CO)n1ccnc1-c1ccc(C)o1 | 0.0887% |
| Cc1ccc(N(C)S(=O)(=O)c2cc(C(=O)O)cs2)c(C)c1 | 0.683% |

| SMILES | cytotoxicity at 70.5 h |
| --- | --- |
| Cc1nccn1CC1CCCN1S(=O)(=O)Cc1ccccc1F (centres undefined) | -7.26% |
| Cc1cn2c(n1)CCC(NC(=O)CCn1ccnn1)C2 (centres undefined) | -8.67% |
| O=C(C1CCCC1)N1CCC(c2ncc3c(n2)CCNC3)C1 (centres undefined) | -5.84% |
| O=c1[nH]c2ccccc2cc1CNCCCN1CCOCC1 | -1.38% |
| CC(NS(N)(=O)=O)c1ccc(OCc2ccc(F)cc2)cc1 (centres undefined) | -0.493% |
| COCC1c2c(cnn2C)CCN1Cc1ccco1 (centres undefined) | -0.607% |
| Cn1ncc2c1C(COCC1CC1)CN(C(=O)Cc1ccsc1)C2 (centres undefined) | -2.83% |
| Cc1ccc(-c2nc(CC(=O)NCC3CCCN(C(C)C)C3)cs2)o1 (centres undefined) | 11.1% |
| O=C(NCCN1CCOCC1)N1CCN(c2ccccc2)CC1 | -10.1% |
| O=C(c1ccc[nH]1)N1CCc2c(COCC3CC3)cncc2C1 | -4.79% |
| COc1ccc(CN2C[C@@H]3CN(C(=O)[C@H]4CCCO4)C[C@@H]3C2=O)cc1 | -4.12% |
| CC(C)(C)c1ccc(OCC(=O)O)c(CN2C[C@H]3C[C@H](O)C[C@H]3C2)c1 | 2.38% |
| CCCc1nc(C(=O)N(C)Cc2cnn(-c3cccc(OC)c3)c2)cs1 | -8.69% |
| O=C(C1CCC1)N1C[C@@H]2CN(c3ccccc3)C(=O)[C@@H]2C1 | 11% |
| Cc1cnn(CC2CCCN2C(=O)c2ccc(F)c(F)c2)c1 (centres undefined) | -0.479% |
| O=C(c1ccc(Sc2ccccn2)cc1)N1CCCSCC1 | -10.8% |
| CC(C)(C)C(CCO)NC(=O)Nc1ccccc1 (centres undefined) | -9.49% |
| CC(C)n1nnc(CC(=O)NCC2(c3ccccc3F)CCCC2)n1 | -10.2% |
| Cc1ccc(NC(=O)N(C)CC(O)COCCOC(C)C)c(Br)c1 (centres undefined) | -4.27% |
| CS(=O)(=O)N1CCN(c2cc(N3CCCC3CO)ncn2)CC1 (centres undefined) | -7.63% |
| O=C1NCCc2c1sc1ccc(C(=O)N3CC[C@H](CO)[C@H](O)C3)cc21 | -2.24% |
| COCCNc1ccc(CC2CCCNC2)cn1 (centres undefined) | -7.04% |
